The values below come from US5318964A, “Hydroxamic derivatives and pharmaceutical compositions” (Hoffmann-La Roche Inc., priority 1992, dated 1994).

For the assay, the target named is T1, collagenase obtained from a culture of human synovial fibroblasts (Homo sapiens, UniProt P03956).
T1 construct: endogenous in cells; host or cells: human synovial fibroblasts in culture (conditioned medium)
T1 sequence (P03956 100-469): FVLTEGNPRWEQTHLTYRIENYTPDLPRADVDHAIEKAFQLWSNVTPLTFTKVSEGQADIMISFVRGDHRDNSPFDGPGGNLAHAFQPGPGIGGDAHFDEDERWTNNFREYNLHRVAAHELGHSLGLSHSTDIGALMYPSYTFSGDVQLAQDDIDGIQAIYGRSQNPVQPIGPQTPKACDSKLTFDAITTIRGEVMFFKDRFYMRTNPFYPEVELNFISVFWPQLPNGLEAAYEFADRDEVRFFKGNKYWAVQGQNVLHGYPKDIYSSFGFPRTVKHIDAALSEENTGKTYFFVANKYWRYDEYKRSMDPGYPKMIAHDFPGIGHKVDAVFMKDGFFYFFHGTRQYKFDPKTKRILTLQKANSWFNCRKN
The experiment in a line: in vitro collagenase inhibiting activity (14C-acetylated collagen type I from rat tail tendons as substrate, microtitre plate assay). The settings on record: trypsin-activated collagenase from human synovial fibroblasts; 14C-acetylated collagen type I (rat tail tendons) substrate; concentration reducing substrate cleavage and solubilization to 50% of enzyme alone. The class given is biochemical. The method, then: As mentioned earlier, the compounds of formula I and their pharmaceutically acceptable salts are collagenase inhibitors. […] Collagenase activity was measured using ^14 C-acetylated collagen type I from rat tail tendons as the substrate and employing the microtitre plate assay method of Johnson-Wint, B, Anal. Biochem. (1980), 104, 175. The IC50 is that concentration of a compound or salt of the invention in the enzyme digestion which reduces substrate cleavage and solubilization to 50% of that achieved by the enzyme alone.
The results obtained in the foregoing test with representative compounds and salts of the invention are compiled in Table I hereinafter: […]
With `CC(C)C[C@@H](C(=O)N1CCSCC1)C(CN1C(=O)c2ccccc2C1=O)C(=O)NO` (single isomer, unassigned) [Compound B, 4-[2(R)-[1(R or S)-(Hydroxycarbamoyl)-2-phthalimidoethyl]-4-methylvaleryl]tetrahydro-1,4-thiazine], the IC50 – broadly, the concentration that gives 50% inhibition – is 6 nM. Take `CC(C)C[C@@H](C(=O)N1CCCCC1)C(Cn1c(=O)n(C)n(C)c1=O)C(=O)NO` (single isomer, unassigned) [Compound D, 1-[2(R)-[1(R or S)-(Hydroxycarbamoyl)-2-(1,2-dimethyl-3,5-dioxo-1,2,4-triazolidin-4-yl)ethyl]-4-methylvaleryl]piperidine]: the IC50 was 15 nM.

As for `CC(C)C[C@@H](C(=O)N1CCC(O)CC1)C(CN1C(=O)c2ccccc2C1=O)C(=O)NO` (single isomer, unassigned) [Compound C, 1-[2(R)-[1(R or S)-(Hydroxycarbamoyl)-2-phthalimidoethyl]-4-methylvaleryl]-4-piperidinol], the IC50 turned out to be 5 nM. As for `CNC(=O)[C@@H]1CCCNN1C(=O)[C@H](CC(C)C)C(CN1C(=O)c2ccccc2C1=O)C(=O)NO` (single isomer, unassigned) [Compound F, Hexahydro-2-[2(R)-[1(R or S)-(hydroxycarbamoyl)-2-phthalimidoethyl]-4-methylvaleryl]-N-methyl-3(S)-pyridazinecarboxamide], the figure is 1.2 nM. As for `CC(C)C[C@@H](C(=O)N1CCSCC1)C(CN1C(=O)CN(C)C1=O)C(=O)NO` (single isomer, unassigned) [Compound E, 4-[2(R)-[1(R or S)-(Hydroxycarbamoyl)-2-(3-methyl-2,5-dioxo-1-imidazolidinyl)ethyl]-4-methylvaleryl]tetrahydro-1,4-thiazine], the figure is 7 nM. In turn, `CC(C)C[C@@H](C(=O)N1CCC(O)CC1)C(CN1C(=O)N(C)C(C)(C)C1=O)C(=O)NO` (single isomer, unassigned) [Compound G, 1-[2(R)-[1(R or S)-(Hydroxycarbamoyl)-2-(3,4,4-trimethyl-2,5-dioxo-1-imidazolidinyl)ethyl]-4-methylvaleryl]-4-piperidinol] displayed an IC50 of 6.9 nM.

`CC(C)C[C@@H](C(=O)N1CCOCC1)C(CN1C(=O)c2ccccc2C1=O)C(=O)NO` (single isomer, unassigned) [Compound A, 4-[2(R)-[1(R or S)-(Hydroxycarbamoyl)-2-phthalimidoethyl]-4-methylvalery]morpholine] registered an IC50 of 10 nM.
